# Source: patent US8952157B2, “Apoptosis-inducing agents for the treatment of cancer and immune and autoimmune diseases” (AbbVie Inc., priority 2008, dated 2015)
# Target: GST-Bcl-2 (Homo sapiens (Human), UniProt P10415)
# Experiment: Time Resolved-Fluorescence Resonance Energy Transfer (TR-FRET) Bcl-2 binding assay
# Conditions: GST-Bcl-2 1 nM, F-Bak peptide probe 100 nM, Tb-anti-GST antibody 1 nM; Ki by Wang's equation
# Summary of the method: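 Ki values derived from TR-FRET displacement of F-Bak peptide from GST-Bcl-2, detected with Tb-labelled anti-GST antibody (ex 340, em 520/495 nm). Compound dilution series started at 50 μM (2× starting concentration); room-temperature incubation 3 hours.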
# Sequence of GST-Bcl-2 (P10415 whole entry): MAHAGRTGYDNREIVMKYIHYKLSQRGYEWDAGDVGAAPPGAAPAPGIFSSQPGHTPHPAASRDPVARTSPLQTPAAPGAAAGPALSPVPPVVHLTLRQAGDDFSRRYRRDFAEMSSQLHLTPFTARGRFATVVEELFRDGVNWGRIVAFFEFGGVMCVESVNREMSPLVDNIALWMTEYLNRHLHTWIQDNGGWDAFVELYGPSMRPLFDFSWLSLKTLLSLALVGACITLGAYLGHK
row,SMILES,Ki
1,"C#Cc1cc(S(=O)(=O)NC(=O)c2ccc(N3CCN(CC4=C(c5ccc(Cl)cc5)CC(C)(C)OC4)CC3)cc2Oc2cc3cc[nH]c3cc2F)cnc1OCC1CCOCC1 [Example 323, 4-(4-{[4-(4-chlorophenyl)-6,6-dimethyl-5,6-dihydro-2H-pyran-3-yl]methyl}piperazin-1-yl)-N-{[5-ethynyl-6-(tetrahydro-2H-pyran-4-ylmethoxy)pyridin-3-yl]sulfonyl}-2-[(6-fluoro-1H-indol-5-yl)oxy]benzamide]",3.48 nM
2,"CC1(C)CCC(CN2CCN(c3ccc(C(=O)NS(=O)(=O)c4ccc(NCC5CCOCC5)c([N+](=O)[O-])c4)c(Oc4ccc(NCC(F)F)nc4)c3)CC2)=C(c2ccc(Cl)cc2)C1 [Example 376, 4-(4-{[2-(4-chlorophenyl)-4,4-dimethylcyclohex-1-en-1-yl]methyl}piperazin-1-yl)-2-({6-[(2,2-difluoroethyl)amino]pyridin-3-yl}oxy)-N-({3-nitro-4-[(tetrahydro-2H-pyran-4-ylmethyl)amino]phenyl}sulfonyl)benzamide]",57.7 nM
3,"CN1CCC(Nc2ccc(S(=O)(=O)NC(=O)c3ccc(N4CCN(CC5=C(c6ccc(Cl)cc6)CC(C)(C)OC5)CC4)cc3Oc3cccc(Cl)c3)cc2[N+](=O)[O-])CC1 [Example 144, 2-(3-chlorophenoxy)-4-(4-{[4-(4-chlorophenyl)-6,6-dimethyl-5,6-dihydro-2H-pyran-3-yl]methyl}piperazin-1-yl)-N-({4-[(1-methylpiperidin-4-yl)amino]-3-nitrophenyl}sulfonyl)benzamide]",0.028 nM
4,"CC1(C)CCC(CN2CCN(c3ccc(C(=O)NS(=O)(=O)c4ccc(NC5CCN(C6CCOCC6)CC5)c([N+](=O)[O-])c4)c(Oc4ccc5nc(N)sc5c4)c3)CC2)=C(c2ccc(Cl)cc2)C1 [Example 232, 2-[(2-amino-1,3-benzothiazol-6-yl)oxy]-4-(4-{[2-(4-chlorophenyl)-4,4-dimethylcyclohex-1-en-1-yl]methyl}piperazin-1-yl)-N-({3-nitro-4-[(1-tetrahydro-2H-pyran-4-ylpiperidin-4-yl)amino]phenyl}sulfonyl)benzamide]",1.05 nM
5,"CN(C)C(=O)c1ccccc1Oc1cc(N2CCN(Cc3ccccc3-c3ccc(Cl)cc3)CC2)ccc1C(=O)NS(=O)(=O)c1ccc(NCC2CCOCC2)c([N+](=O)[O-])c1 [Example 30, 2-(5-(4-((4′-chlorobiphenyl-2-yl)methyl)piperazin-1-yl)-2-(3-nitro-4-((tetrahydro-2H-pyran-4-yl)methylamino)phenylsulfonylcarbamoyl)phenoxy)-N,N-dimethylbenzamide]",0.071 nM
6,"CN1CCC(Nc2ccc(C(=O)NS(=O)(=O)c3ccc(N4CCN(Cc5ccccc5-c5ccc(Cl)cc5)CC4)cc3Oc3cc(Cl)cc(Cl)c3)cc2[N+](=O)[O-])CC1 [Example 111, N-{[4-{4-[(4′-chloro-1,1′-biphenyl-2-yl)methyl]piperazin-1-yl}-2-(3,5-dichlorophenoxy)phenyl]sulfonyl}-4-[(1-methylpiperidin-4-yl)amino]-3-nitrobenzamide]",17.4 nM
7,"CC1(C)CCC(CN2CCN(c3ccc(C(=O)NS(=O)(=O)c4ccc(NCC5COCCO5)c([N+](=O)[O-])c4)c(Oc4cnc(N)c(Cl)c4)c3)CC2)=C(c2ccc(Cl)cc2)C1 (centres unmarked) [Example 346, 2-[(6-amino-5-chloropyridin-3-yl)oxy]-4-(4-{[2-(4-chlorophenyl)-4,4-dimethylcyclohex-1-en-1-yl]methyl}piperazin-1-yl)-N-({4-[(1,4-dioxan-2-ylmethyl)amino]-3-nitrophenyl}sulfonyl)benzamide]",< 0.01 nM
8,"O=C(NS(=O)(=O)c1ccc(NCCCN2CCOCC2)c([N+](=O)[O-])c1)c1ccc(N2CCN(Cc3ccccc3-c3ccc(Cl)cc3)CC2)cc1Oc1cccc(Cl)c1 [Example 12, 4-(4-((4′-chloro-1,1′-biphenyl-2-yl)methyl)piperazin-1-yl)-2-(3-chlorophenoxy)-N-((4-((3-morpholin-4-ylpropyl)amino)-3-nitrophenyl)sulfonyl)benzamide]",0.331 nM
9,"COc1cccc(Oc2cc(N3CCN(CC4=C(c5ccc(Cl)cc5)CC(C)(C)CC4)CC3)ccc2C(=O)NS(=O)(=O)c2ccc(NC3CCN(C)CC3)c([N+](=O)[O-])c2)c1 [Example 166, 4-(4-{[2-(4-chlorophenyl)-4,4-dimethylcyclohex-1-en-1-yl]methyl}piperazin-1-yl)-2-(3-methoxyphenoxy)-N-({4-[(1-methylpiperidin-4-yl)amino]-3-nitrophenyl}sulfonyl)benzamide]",0.082 nM
10,"CC1(C)CCC(CN2CCN(c3ccc(C(=O)NS(=O)(=O)c4ccc(NCC5CCOCC5)c([N+](=O)[O-])c4)c(Oc4cc(N)nc(N)c4)c3)CC2)=C(c2ccc(Cl)cc2)C1 [Example 380, 4-(4-{[2-(4-chlorophenyl)-4,4-dimethylcyclohex-1-en-1-yl]methyl}piperazin-1-yl)-2-[(2,6-diaminopyridin-4-yl)oxy]-N-({3-nitro-4-[(tetrahydro-2H-pyran-4-ylmethyl)amino]phenyl}sulfonyl)benzamide]",8.27 nM
11,"Cc1nc2ccc(Oc3cc(N4CCN(Cc5ccccc5-c5ccc(Cl)cc5)CC4)ccc3C(=O)NS(=O)(=O)c3ccc(NCC4CCOCC4)c([N+](=O)[O-])c3)cc2s1 [Example 23, 4-(4-((4′-chloro-1,1′-biphenyl-2-yl)methyl)piperazin-1-yl)-2-((2-methyl-1,3-benzothiazol-6-yl)oxy)-N-((3-nitro-4-((tetrahydro-2H-pyran-4-ylmethyl)amino)phenyl)sulfonyl)benzamide]",8.27 nM
12,"CN1CCC(Nc2ccc(S(=O)(=O)NC(=O)c3ccc(N4CCN(CC5=C(c6ccc(Cl)cc6)CC(C)(C)CC5)CC4)cc3Oc3cccc(Cl)c3)cc2S(=O)(=O)C(F)(F)F)CC1 [Example 131, 2-(3-chlorophenoxy)-4-(4-{[2-(4-chlorophenyl)-4,4-dimethylcyclohex-1-en-1-yl]methyl}piperazin-1-yl)-N-({4-[(1-methylpiperidin-4-yl)amino]-3-[(trifluoromethyl)sulfonyl]phenyl}sulfonyl)benzamide]",0.066 nM
13,"CN1CCC(Nc2ccc(S(=O)(=O)NC(=O)c3ccc(N4CCN(CC5=C(c6ccc(Cl)cc6)CC(C)(C)CC5)CC4)cc3Oc3cccc(Cl)c3F)cc2[N+](=O)[O-])CC1 [Example 147, 2-(3-chloro-2-fluorophenoxy)-4-(4-{[2-(4-chlorophenyl)-4,4-dimethylcyclohex-1-en-1-yl]methyl}piperazin-1-yl)-N-({4-[(1-methylpiperidin-4-yl)amino]-3-nitrophenyl}sulfonyl)benzamide]",0.127 nM
14,"CC1(C)CCC(CN2CCN(c3ccc(C(=O)NS(=O)(=O)c4ccc(NCC5CCOCC5)c([N+](=O)[O-])c4)c(Oc4cccc5c4CCN(C(=O)OC(C)(C)C)C5)c3)CC2)=C(c2ccc(Cl)cc2)C1 [Example 260, tert-butyl 5-(5-(4-{[2-(4-chlorophenyl)-4,4-dimethylcyclohex-1-en-1-yl]methyl}piperazin-1-yl)-2-{[({3-nitro-4-[(tetrahydro-2H-pyran-4-ylmethyl)amino]phenyl}sulfonyl)amino]carbonyl}phenoxy)-3,4-dihydro isoquinoline-2(H)-carboxylate]",11.8 nM
15,"CC1(C)CCC(CN2CCN(c3ccc(C(=O)NS(=O)(=O)c4ccc(NC[C@H]5CCCOC5)c([N+](=O)[O-])c4)c(Oc4cc5cc[nH]c5cc4F)c3)CC2)=C(c2ccc(Cl)cc2)C1 [Example 259, 4-(4-{[2-(4-chlorophenyl)-4,4-dimethylcyclohex-1-en-1-yl]methyl}piperazin-1-yl)-2-[(6-fluoro-1H-indol-5-yl)oxy]-N-[(3-nitro-4-{[(3R)-tetrahydro-2H-pyran-3-ylmethyl]amino}phenyl)sulfonyl]benzamide]",0.165 nM
16,"CN(C)CCCNc1ccc(S(=O)(=O)NC(=O)c2ccc(N3CCN(Cc4ccccc4-c4ccc(Cl)cc4)CC3)cc2Oc2ccc3[nH]cc(CCC(=O)N4CCOCC4)c3c2)cc1[N+](=O)[O-] [Example 70, 4-(4-((4′-chloro-1,1′-biphenyl-2-yl)methyl)piperazin-1-yl)-N-((4-((3-(dimethylamino)propyl)amino)-3-nitrophenyl)sulfonyl)-2-((3-(3-morpholin-4-yl-3-oxopropyl)-1H-indol-5-yl)oxy)benzamide]",20.4 nM
17,"CN1CCC(CNc2ccc(S(=O)(=O)NC(=O)c3ccc(N4CCN(CC5=C(c6ccc(Cl)cc6)CC(C)(C)CC5)CC4)cc3Oc3cccc(Cl)c3)cc2[N+](=O)[O-])CC1 [Example 155, 2-(3-chlorophenoxy)-4-(4-{[2-(4-chlorophenyl)-4,4-dimethylcyclohex-1-en-1-yl]methyl}piperazin-1-yl)-N-[(4-{[(1-methylpiperidin-4-yl)methyl]amino}-3-nitrophenyl)sulfonyl]benzamide]",0.062 nM
18,"O=C(NS(=O)(=O)c1ccc(NCCCN2CCOCC2)c([N+](=O)[O-])c1)c1ccc(N2CCN(Cc3ccccc3-c3ccc(Cl)cc3)CC2)cc1Oc1ccc(-c2cccnc2)cc1 [Example 100, 4-(4-((4′-chloro-1,1′-biphenyl-2-yl)methyl)piperazin-1-yl)-N-((4-((3-morpholin-4-ylpropyl)amino)-3-nitrophenyl)sulfonyl)-2-(4-pyridin-3-ylphenoxy)benzamide]",113 nM
19,"CN(C)CCc1ccc(Oc2cc(N3CCN(Cc4ccccc4-c4ccc(Cl)cc4)CC3)ccc2C(=O)NS(=O)(=O)c2ccc(NCC3CCOCC3)c([N+](=O)[O-])c2)cc1 [Example 87, 4-(4-((4′-chloro-1,1′-biphenyl-2-yl)methyl)piperazin-1-yl)-2-(4-(2-(dimethylamino)ethyl)phenoxy)-N-((3-nitro-4-((tetrahydro-2H-pyran-4-ylmethyl)amino)phenyl)sulfonyl)benzamide]",264 nM
20,"CN1CCC(Nc2ccc(S(=O)(=O)NC(=O)c3ccc(N4CCN(CC5=C(c6ccc(Cl)cc6)CC(C)(C)CC5)CC4)cc3Oc3cc4cc[nH]c4c(F)c3F)cc2[N+](=O)[O-])CC1 [Example 200, 4-(4-{[2-(4-chlorophenyl)-4,4-dimethylcyclohex-1-en-1-yl]methyl}piperazin-1-yl)-2-[(6,7-difluoro-1H-indol-5-yl)oxy]-N-({4-[(1-methylpiperidin-4-yl)amino]-3-nitrophenyl}sulfonyl)benzamide]",0.081 nM
